In US20260166162A1, “CARBON CHAIN SUBSTANCE FOR REGULATING TRANSMEMBRANE TRANSPORT AND FLUIDITY OF CELL MEMBRANES, AND PREPARATION AND USE THEREOF” (priority 2022, published 2026):

Columns and labels:
Epithelial cells = assay: Interaction of GFP-labelled complexes with cell membrane of epithelial cells (Example II-52, Table II-30); assay type: cell-based; conditions: GFP-labelled complex, epithelial cells pretreated 4 hours, n=3
Procedure: The fatty acids were combined with water-soluble small molecules to form a complex, which were labeled with GFP fluorescence to detect cell membrane fluorescence. […] After the cells were stably adhered, the water-soluble fatty acid complexes in the following table were added to the cell culture medium. […] The medium with the drug was pipetted and replaced with normal DMEM medium. […] The green fluorescence intensity was analyzed by imageJ (see Table II-30, n=3).

293T cells = assay: Cellular phagocytosis of DiD-loaded lipid vesicles (nano-drugs) by 293T cells (Example II-51, Table II-29); assay type: cell-based; conditions: 293T cells pretreated 4 h, DiD lipid vesicles 2 h, n=3, untreated control 226.46 ± 1.26

| Compound | Mean fluorescence intensity (Epithelial cells; 0 Hours after medium replaced) | Mean fluorescence intensity (Epithelial cells; 2 Hours after medium replaced) | Mean fluorescence intensity (Epithelial cells; 4 Hours after medium replaced) | Mean fluorescence intensity (Epithelial cells; 8 Hours after medium replaced) | Mean fluorescence intensity (Epithelial cells; 12 Hours after medium replaced) | Mean fluorescence intensity (Epithelial cells; 24 Hours after medium replaced) | Fluorescence intensity (293T cells; 2 nM) | Fluorescence intensity (293T cells; 5 nM) | Fluorescence intensity (293T cells; 10 nM) | Fluorescence intensity (293T cells; 50 nM) | Fluorescence intensity (293T cells; 100 nM) | Fluorescence intensity (293T cells; 1 uM) | Fluorescence intensity (293T cells; 10 uM) | Fluorescence intensity (293T cells; 50 uM) | Fluorescence intensity (293T cells; 100 uM) |
| --- | --- | --- | --- | --- | --- | --- | --- | --- | --- | --- | --- | --- | --- | --- | --- |
| CCCCCCCCC=CCCCCCCCCCCCC(=O)OC(C)C(N)C(=O)O (centres unmarked) [Thr-erucic acid] | 137.4 ± 5.8 | 121.3 ± 5.5 | 105.2 ± 7.3 | 79.5 ± 4.8 | 48.3 ± 1.2 | 42.4 ± 4.6 |  |  |  |  |  |  |  |  |  |
| Nc1ncnc2c1ncn2[C@@H]1O[C@H](COP(=O)(O)O)[C@@H](O)[C@H]1O.O=C(O)/C=C/C(=O)O [Adenosine monophosphate-fumaric acid] | 125.1 ± 7.6 | 120.5 ± 7.4 | 113.3 ± 4.6 | 50.0 ± 2.4 | 35.8 ± 4.6 | 31.3 ± 4.4 |  |  |  |  |  |  |  |  |  |
| O=C(O)CCCCCCCCCC(=O)OCC(O)C1OC(=O)C(O)=C1O (centres unmarked) [Vc-undecanedioic acid] | 124.4 ± 4.5 | 116.4 ± 0.7 | 112.1 ± 6.3 | 65.3 ± 3.6 | 41.3 ± 9.3 | 35.4 ± 1.6 |  |  |  |  |  |  |  |  |  |
| CCCCCC(=O)O [Hexanoic acid] |  |  |  |  |  |  | 131.26 ± 11.25 | 114.00 ± 14.2 | 94.34 ± 4.25 | 96.63 ± 6.32 | 30.71 ± 1.25 | 102.07 ± 12.2 | 125.10 ± 12.55 | 288.42 ± 8.32 | 325.58 ± 15.26 |
| CCCCCCCCCCCCCCCCCCCCCCCC(=O)OC(C)C(N)C(=O)O (centres unmarked) [Threonine-C24] |  |  |  |  |  |  | 39.09 ± 7.89 | 38.29 ± 5.26 | 22.90 ± 1.22 | 12.84 ± 2.22 | 14.81 ± 1.33 | 435.55 ± 15.26 | 416.78 ± 12.33 | 46.51 ± 5.21 | 30.64 ± 5.55 |
| CCCCCCCC/C=C\CCCCCCCC(=O)O.OCCO [Ethylene glycol-oleic acid] |  |  |  |  |  |  | 182.21 ± 18.23 | 121.07 ± 11.26 | 69.12 ± 4.26 | 64.90 ± 1.56 | 44.23 ± 4.26 | 368.97 ± 18.56 |  | 69.34 ± 5.32 | 58.72 ± 8.75 |
| CCCCCC/C=C\CCCCCCCC(=O)OC(C)C(N)C(=O)O (stereo not drawn) [Threonine-cis-9-hexadecanoic acid] |  |  |  |  |  |  | 142.94 | 67.71 ± 5.67 | 64.00 ± 4.06 | 74.71 ± 5.36 | 56.71 ± 6.74 | 153.25 ± 13.25 | 126.64 ± 11.02 | 37.23 ± 2.35 | 61.12 ± 5.21 |
